# Experimental data published in US8076487B2, “Pyridone derivative and herbicide” (Kumiai Chemical Industry Co., Ltd., priority 2006, dated 2011).
# Assays:
# Format in all cases: in vivo
# [1] = test system: green foxtail (Setaria viridis (L.) P. Beauv.); assay: Test Example 3: herbicidal effect by application to upland field (foliage treatment); conditions: 14th day after application; for herbicidal effect, Green Foxtail: foliage treatment, 1,000 g active ingredient per 1 hectare, greenhouse; for herbicidal effect (index), Green Foxtail: foliage treatment, plants grown two weeks, 1,000 g active ingredient per hectare
# Method in brief: (§1)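 Upland foliage test in greenhouse pots of field soil: seedlings sprayed at two weeks post-sowing with 1,000 g/ha active ingredient (wettable powder, 1,000 L water/ha). Scored 14 d after application.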
# [2] = test system: velvetleaf (Abutilon theophrasti medicus); assay: as above; conditions: 14th day after application; for herbicidal effect, Velvetleaf: foliage treatment, 1,000 g active ingredient per 1 hectare, greenhouse; for herbicidal effect (index), Velvetleaf: foliage treatment, plants grown two weeks, 1,000 g active ingredient per hectare
# Method in brief: as §1
# [3] = test system: barnyardgrass (Echinochloa crus-galli (L.) P. Beauv. var. crus-galli); assay: as above; conditions: 14th day after application; for herbicidal effect, Barnyardgrass: foliage treatment, 1,000 g active ingredient per 1 hectare, greenhouse; for herbicidal effect (index), Barnyardgrass: foliage treatment, plants grown two weeks, 1,000 g active ingredient per hectare
# Method in brief: as §1
# [4] = test system: slender amaranth (Amaranthus viridis L.); assay: as above; conditions: 14th day after application; for herbicidal effect, Slender Amaranth: foliage treatment, 1,000 g active ingredient per 1 hectare, greenhouse; for herbicidal effect (index), Slender Amaranth: foliage treatment, plants grown two weeks, 1,000 g active ingredient per hectare
# Method in brief: as §1
# [5] = test system: green foxtail (Setaria viridis (L.) P. Beauv.); assay: Test Example 2: herbicidal effect by soil application to upland field; conditions: soil surface spray, upland field soil, 1,000 g active ingredient per hectare, 21st day after application
# Method in brief: (§2)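 Seeds were sown in field soil, covered, and the soil surface sprayed with a water-diluted wettable powder at 1,000 g active ingredient per hectare in 1,000 L/ha. Plants grew in a greenhouse, and herbicidal effect was rated against a standard scale 21 days after application.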
# [6] = test system: velvetleaf (Abutilon theophrasti medicus); assay: as above; conditions: soil surface spray, upland field soil, 1,000 g active ingredient per hectare, 21st day after application
# Method in brief: as §2
# [7] = test system: barnyardgrass (Echinochloa crus-galli (L.) P. Beauv. var. crus-galli); assay: as above; conditions: soil surface spray, upland field soil, 1,000 g active ingredient per hectare, 21st day after application
# Method in brief: as §2
# [8] = test system: slender amaranth (Amaranthus viridis L.); assay: as above; conditions: soil surface spray, upland field soil, 1,000 g active ingredient per hectare, 21st day after application
# Method in brief: as §2
# [9] = test system: early watergrass (Echinochloa oryzicola Vasing); assay: Test Example 1: herbicidal effect by soil application to paddy field; conditions: paddy field soil application; active ingredient 1,000 g per 1 hectare; wettable powder added dropwise to water surface the day after sowing; examined on the 21st day after application
# Method in brief: (§3)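 Plants were sown in flooded (3 cm) paddy soil and evaluated for herbicidal effect 21 days after soil application in a greenhouse.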
# [10] = test system: Japanese bulrush (Scirpus juncoides Roxb.); assay: as above; conditions: paddy field soil application; active ingredient 1,000 g per 1 hectare; wettable powder added dropwise to water surface the day after sowing; examined on the 21st day after application
# Method in brief: as §3
# [11] = test system: heartshape false pickerelweed (Monochoria vaginalis (Burm.f.) C.Presl); assay: as above; conditions: paddy field soil application; active ingredient 1,000 g per 1 hectare; wettable powder added dropwise to water surface the day after sowing; examined on the 21st day after application
# Method in brief: as §3
compound,measurement,setting,value
COCCNn1c(C(F)(F)F)ccc(C(=O)C2=C(O)CCCC2=O)c1=O [I-169],"herbicidal effect, Green Foxtail",[1],5 (90% or more of herbicidal effect and crop phytotoxicity)
same,"herbicidal effect, Velvetleaf",[2],5 (90% or more of herbicidal effect and crop phytotoxicity)
same,"herbicidal effect, Barnyardgrass",[3],5 (90% or more of herbicidal effect and crop phytotoxicity)
same,"herbicidal effect, Slender Amaranth",[4],5 (90% or more of herbicidal effect and crop phytotoxicity)
same,"herbicidal effect (index), Green Foxtail",[5],5 (90% or more of herbicidal effect and crop phytotoxicity)
same,"herbicidal effect (index), Velvetleaf",[6],5 (90% or more of herbicidal effect and crop phytotoxicity)
same,"herbicidal effect (index), Barnyardgrass",[7],5 (90% or more of herbicidal effect and crop phytotoxicity)
same,"herbicidal effect (index), Slender Amaranth",[8],5 (90% or more of herbicidal effect and crop phytotoxicity)
same,"herbicidal effect, Echinochloa oryzicola Vasing",[9],5 (90% or more of herbicidal effect and crop phytotoxicity)
same,"herbicidal effect, Scirpus juncoides Roxb.",[10],5 (90% or more of herbicidal effect and crop phytotoxicity)
same,"herbicidal effect, Monochoria vaginalis (Burm. f.) C. Presl",[11],5 (90% or more of herbicidal effect and crop phytotoxicity)
Nn1c(C(F)(F)F)ccc(C(=O)C2=C(O)CCCC2=O)c1=O [I-156],"herbicidal effect, Green Foxtail",[1],4 (70 to less than 90% of herbicidal effect and crop phytotoxicity)
same,"herbicidal effect, Velvetleaf",[2],5 (90% or more of herbicidal effect and crop phytotoxicity)
same,"herbicidal effect, Barnyardgrass",[3],5 (90% or more of herbicidal effect and crop phytotoxicity)
same,"herbicidal effect, Slender Amaranth",[4],5 (90% or more of herbicidal effect and crop phytotoxicity)
same,"herbicidal effect (index), Green Foxtail",[5],4 (70 to less than 90% of herbicidal effect and crop phytotoxicity)
same,"herbicidal effect (index), Velvetleaf",[6],5 (90% or more of herbicidal effect and crop phytotoxicity)
same,"herbicidal effect (index), Barnyardgrass",[7],5 (90% or more of herbicidal effect and crop phytotoxicity)
same,"herbicidal effect (index), Slender Amaranth",[8],5 (90% or more of herbicidal effect and crop phytotoxicity)
same,"herbicidal effect, Echinochloa oryzicola Vasing",[9],5 (90% or more of herbicidal effect and crop phytotoxicity)
same,"herbicidal effect, Scirpus juncoides Roxb.",[10],5 (90% or more of herbicidal effect and crop phytotoxicity)
same,"herbicidal effect, Monochoria vaginalis (Burm. f.) C. Presl",[11],5 (90% or more of herbicidal effect and crop phytotoxicity)
COc1cc(OC)cc(-n2c(C(F)(F)F)ccc(C(=O)C3=C(O)CCCC3=O)c2=O)c1 [I-101],"herbicidal effect (index), Green Foxtail",[1],5 (90% or more of herbicidal effect and crop phytotoxicity)
same,"herbicidal effect (index), Velvetleaf",[2],5 (90% or more of herbicidal effect and crop phytotoxicity)
same,"herbicidal effect (index), Barnyardgrass",[3],5 (90% or more of herbicidal effect and crop phytotoxicity)
same,"herbicidal effect (index), Slender Amaranth",[4],5 (90% or more of herbicidal effect and crop phytotoxicity)
same,"herbicidal effect (index), Green Foxtail",[5],5 (90% or more of herbicidal effect and crop phytotoxicity)
same,"herbicidal effect (index), Velvetleaf",[6],5 (90% or more of herbicidal effect and crop phytotoxicity)
same,"herbicidal effect (index), Barnyardgrass",[7],5 (90% or more of herbicidal effect and crop phytotoxicity)
same,"herbicidal effect (index), Slender Amaranth",[8],5 (90% or more of herbicidal effect and crop phytotoxicity)
same,"herbicidal effect, Echinochloa oryzicola Vasing",[9],5 (90% or more of herbicidal effect and crop phytotoxicity)
same,"herbicidal effect, Scirpus juncoides Roxb.",[10],5 (90% or more of herbicidal effect and crop phytotoxicity)
same,"herbicidal effect, Monochoria vaginalis (Burm. f.) C. Presl",[11],5 (90% or more of herbicidal effect and crop phytotoxicity)
COCC(C)n1c(C(F)(F)F)ccc(C(=O)C2=C(O)CCCC2=O)c1=O (stereo not shown) [I-33],"herbicidal effect (index), Green Foxtail",[1],4 (70 to less than 90% of herbicidal effect and crop phytotoxicity)
same,"herbicidal effect (index), Velvetleaf",[2],5 (90% or more of herbicidal effect and crop phytotoxicity)
same,"herbicidal effect (index), Barnyardgrass",[3],5 (90% or more of herbicidal effect and crop phytotoxicity)
same,"herbicidal effect (index), Slender Amaranth",[4],5 (90% or more of herbicidal effect and crop phytotoxicity)
same,"herbicidal effect (index), Green Foxtail",[5],3 (50 to less than 70% of herbicidal effect and crop phytotoxicity)
same,"herbicidal effect (index), Velvetleaf",[6],5 (90% or more of herbicidal effect and crop phytotoxicity)
same,"herbicidal effect (index), Barnyardgrass",[7],5 (90% or more of herbicidal effect and crop phytotoxicity)
same,"herbicidal effect (index), Slender Amaranth",[8],5 (90% or more of herbicidal effect and crop phytotoxicity)
same,"herbicidal effect, Echinochloa oryzicola Vasing",[9],5 (90% or more of herbicidal effect and crop phytotoxicity)
same,"herbicidal effect, Scirpus juncoides Roxb.",[10],5 (90% or more of herbicidal effect and crop phytotoxicity)
same,"herbicidal effect, Monochoria vaginalis (Burm. f.) C. Presl",[11],5 (90% or more of herbicidal effect and crop phytotoxicity)
C[S+]([O-])c1cccc(-n2c(C(F)(F)F)ccc(C(=O)C3=C(O)CCCC3=O)c2=O)c1 (stereo not shown) [I-81],"herbicidal effect (index), Green Foxtail",[1],5 (90% or more of herbicidal effect and crop phytotoxicity)
same,"herbicidal effect (index), Velvetleaf",[2],5 (90% or more of herbicidal effect and crop phytotoxicity)
same,"herbicidal effect (index), Barnyardgrass",[3],5 (90% or more of herbicidal effect and crop phytotoxicity)
same,"herbicidal effect (index), Slender Amaranth",[4],5 (90% or more of herbicidal effect and crop phytotoxicity)
same,"herbicidal effect (index), Green Foxtail",[5],5 (90% or more of herbicidal effect and crop phytotoxicity)
same,"herbicidal effect (index), Velvetleaf",[6],5 (90% or more of herbicidal effect and crop phytotoxicity)
same,"herbicidal effect (index), Barnyardgrass",[7],5 (90% or more of herbicidal effect and crop phytotoxicity)
same,"herbicidal effect (index), Slender Amaranth",[8],5 (90% or more of herbicidal effect and crop phytotoxicity)
same,"herbicidal effect, Echinochloa oryzicola Vasing",[9],5 (90% or more of herbicidal effect and crop phytotoxicity)
same,"herbicidal effect, Scirpus juncoides Roxb.",[10],5 (90% or more of herbicidal effect and crop phytotoxicity)
same,"herbicidal effect, Monochoria vaginalis (Burm. f.) C. Presl",[11],5 (90% or more of herbicidal effect and crop phytotoxicity)
O=C1CCCC(O)=C1C(=O)c1ccc(C(F)F)n(-c2ccccc2)c1=O [I-223],"herbicidal effect, Green Foxtail",[1],5 (90% or more of herbicidal effect and crop phytotoxicity)
same,"herbicidal effect, Velvetleaf",[2],5 (90% or more of herbicidal effect and crop phytotoxicity)
same,"herbicidal effect, Barnyardgrass",[3],5 (90% or more of herbicidal effect and crop phytotoxicity)
same,"herbicidal effect, Slender Amaranth",[4],5 (90% or more of herbicidal effect and crop phytotoxicity)
same,"herbicidal effect (index), Green Foxtail",[5],5 (90% or more of herbicidal effect and crop phytotoxicity)
same,"herbicidal effect (index), Velvetleaf",[6],5 (90% or more of herbicidal effect and crop phytotoxicity)
same,"herbicidal effect (index), Barnyardgrass",[7],5 (90% or more of herbicidal effect and crop phytotoxicity)
same,"herbicidal effect (index), Slender Amaranth",[8],5 (90% or more of herbicidal effect and crop phytotoxicity)
same,"herbicidal effect, Echinochloa oryzicola Vasing",[9],5 (90% or more of herbicidal effect and crop phytotoxicity)
same,"herbicidal effect, Scirpus juncoides Roxb.",[10],5 (90% or more of herbicidal effect and crop phytotoxicity)
same,"herbicidal effect, Monochoria vaginalis (Burm. f.) C. Presl",[11],5 (90% or more of herbicidal effect and crop phytotoxicity)
O=C1CCCC(O)=C1C(=O)c1ccc(C(F)(F)F)n(-c2ccccc2F)c1=O [I-91],"herbicidal effect (index), Green Foxtail",[1],4 (70 to less than 90% of herbicidal effect and crop phytotoxicity)
same,"herbicidal effect (index), Velvetleaf",[2],5 (90% or more of herbicidal effect and crop phytotoxicity)
same,"herbicidal effect (index), Barnyardgrass",[3],5 (90% or more of herbicidal effect and crop phytotoxicity)
same,"herbicidal effect (index), Slender Amaranth",[4],5 (90% or more of herbicidal effect and crop phytotoxicity)
same,"herbicidal effect (index), Green Foxtail",[5],5 (90% or more of herbicidal effect and crop phytotoxicity)
same,"herbicidal effect (index), Velvetleaf",[6],5 (90% or more of herbicidal effect and crop phytotoxicity)
same,"herbicidal effect (index), Barnyardgrass",[7],5 (90% or more of herbicidal effect and crop phytotoxicity)
same,"herbicidal effect (index), Slender Amaranth",[8],5 (90% or more of herbicidal effect and crop phytotoxicity)
same,"herbicidal effect, Echinochloa oryzicola Vasing",[9],5 (90% or more of herbicidal effect and crop phytotoxicity)
same,"herbicidal effect, Scirpus juncoides Roxb.",[10],5 (90% or more of herbicidal effect and crop phytotoxicity)
same,"herbicidal effect, Monochoria vaginalis (Burm. f.) C. Presl",[11],5 (90% or more of herbicidal effect and crop phytotoxicity)
CCCn1c(C(F)(F)F)ccc(C(=O)C2=C(O)CCCC2=O)c1=O [I-3],"herbicidal effect (index), Green Foxtail",[1],5 (90% or more of herbicidal effect and crop phytotoxicity)
same,"herbicidal effect (index), Velvetleaf",[2],5 (90% or more of herbicidal effect and crop phytotoxicity)
same,"herbicidal effect (index), Barnyardgrass",[3],5 (90% or more of herbicidal effect and crop phytotoxicity)
same,"herbicidal effect (index), Slender Amaranth",[4],5 (90% or more of herbicidal effect and crop phytotoxicity)
same,"herbicidal effect (index), Green Foxtail",[5],5 (90% or more of herbicidal effect and crop phytotoxicity)
same,"herbicidal effect (index), Velvetleaf",[6],5 (90% or more of herbicidal effect and crop phytotoxicity)
same,"herbicidal effect (index), Barnyardgrass",[7],5 (90% or more of herbicidal effect and crop phytotoxicity)
same,"herbicidal effect (index), Slender Amaranth",[8],5 (90% or more of herbicidal effect and crop phytotoxicity)
same,"herbicidal effect, Echinochloa oryzicola Vasing",[9],5 (90% or more of herbicidal effect and crop phytotoxicity)
same,"herbicidal effect, Scirpus juncoides Roxb.",[10],5 (90% or more of herbicidal effect and crop phytotoxicity)
same,"herbicidal effect, Monochoria vaginalis (Burm. f.) C. Presl",[11],5 (90% or more of herbicidal effect and crop phytotoxicity)
